Reference: the NIST ThermoML archive (doi:10.1021/je3010062)

Details: 101.33 kPa, Liquid; for viscosity: Concentric cylinders viscometry; for mass density: Vibrating tube method; for electrical conductivity: syringe-type cell with a pair of platinum electrodes

CC[N+](C)(C)CCOCCOC.O=S(=O)([N-]S(=O)(=O)C(F)(F)F)C(F)(F)F
Details	electrical conductivity [S/m]	mass density [kg/m3]	viscosity [mPa·s]
273.15 K	0.0681	1414.1	243.5
278.15 K	0.0936	1409.65	173.6
283.15 K	0.125	1404.97	127.5
288.15 K	0.162	1400.31	96.35
293.15 K	0.206	1395.68	74.27
298.15 K	0.257	1391.07	58.57
303.15 K	0.315	1386.49	47.19
313.15 K	0.451	1377.4	32.03
323.15 K	0.616	1368.39	22.89
333.15 K	0.81	1359.45	17.02
343.15 K	1.02	1350.57	13.14
353.15 K	1.27	1341.75	10.39
363.15 K	–	1332.98	8.433

CCCCCCC[N+](C)(C)CC.O=S(=O)([N-]S(=O)(=O)C(F)(F)F)C(F)(F)F
Details	electrical conductivity [S/m]	mass density [kg/m3]	viscosity [mPa·s]
273.15 K	0.0157	1311.95	944.3
278.15 K	0.023	1307.78	634.1
283.15 K	0.0328	1303.56	437.8
288.15 K	0.0454	1299.38	310.5
293.15 K	0.0614	1295.2	225.7
298.15 K	0.081	1291	167.7
303.15 K	0.105	1286.82	127.6
313.15 K	0.167	1278.51	77.77
323.15 K	0.249	1270.28	50.63
333.15 K	0.353	1262.09	34.68
343.15 K	0.48	1253.97	24.84
353.15 K	0.631	1245.9	18.49
363.15 K	–	1237.87	14.18
